Measured values reported in patent publication US5723461A, “Quinoxalines, a process for their preparation and their use” (Hoechst Aktiengesellschaft, priority 1994, dated 1998).
Converted amounts (≈) assume the structure as drawn.

How the values were obtained:
[1] = test system: HIV; test: Testing of preparations against HIV in cell culture (T-cell culture assay); type: cell-based; details: Human immunodeficiency virus 1, 72 h, HIV-infected lymphocytes, 3 days at 37° C., lowest concentration at which no giant cells occurred, read-out: MIC EC50
Procedure: Testing of preparations against HIV in cell culture
Description of the method:
Complete medium additionally contains 20% fetal calf serum and 40 IU/ml recombinant interleukin 2.
Lymphocytes, which have been isolated from fresh donor blood by means of Ficoll® gradient centrifugation, are cultured, for 36 hours at 37° C. and under 5% CO2, in complete medium which additionally contains […] phytohemagglutinin (Wellcome). After 10% DMSO has been added, the cells are frozen at a cell density of 5×10^6 and stored in liquid nitrogen. For the experiment, the cells are thawed, washed in the RPMI medium and cultured for 3 to 4 days in the complete medium.
The test preparations were dissolved in DMSO at a concentration of 16.7 mg/ml, and these solutions were diluted with complete medium to a concentration of 1 mg/ml. 0.4 ml of medium was initially introduced into 24-well multiwell plates. After 0.1 ml of the dissolved preparation had been added to the upper row of the plate, a geometric dilution series was produced by transferring 0.1 ml on each occasion. Preparation-free controls contained 0.4 ml of complete medium containing 0.5% DMSO.
Lymphocyte cultures having a cell count of 5×10^5 cells/ml were infected by adding a 1/50 volume of the supernatant from HIV-infected lymphocyte cultures. The titer of these culture supernatants was determined by end-point dilution to be 1-5×10^6 infectious units/ml. After having been incubated at 37° C. for 30 min, the infected lymphocytes were centrifuged off and taken up once again in the same volume of medium. 0.6 ml of this cell suspension was added to each of the wells in the test plate. The assay mixtures were incubated at 37° C. for 3 days.
The infected cell cultures were examined under the microscope for the presence of giant cells, which are indicative of active viral replication in the culture. The lowest preparation concentration at which no giant cells occurred was determined and taken to be the inhibitory concentration against HIV. As a control, the supernatants from the culture plates were assayed for the presence of HIV antigen using an HIV antigen test in accordance with the manufacturer's (Organon) instructions.

[2] = target: T1, HIV reverse transcriptase (Human immunodeficiency virus type 1 group M subtype B, UniProt P04585); test: Inhibition of HIV reverse transcriptase (scintillation proximity assay); type: biochemical; details: Reverse transcriptase assay (SPA), 60 min, 37° C.
T1 construct: purchased HT Biotechnology Ltd., Cambridge, UK; host or cells: E. coli
Procedure: Examination of the substances for their ability to inhibit HIV reverse transcriptase
The activity of the reverse transcriptase (RT) was determined using a scintillation proximity assay (SPA).
The reagent kit for the RT SPA was obtained from Amersham/Buchler (Braunschweig). The RT enzyme (derived from HIV and cloned in E. coli) was obtained from HT Biotechnology Ltd., Cambridge, UK.
The test was carried out in accordance with the manufacturer's (Amersham) methods manual, with the following modifications:
Bovine serum albumin was added to the assay buffer to a final concentration of 0.5 mg/ml.
The test was carried out in Eppendorf tubes using an assay mixture volume of 100 μl.
The manufacturer's RT concentrate (5000 U/ml) was diluted to an activity of 15 U per ml using 20 mM tris-HCl buffer, pH 7.2, 30% glycerol.
The assay mixtures were incubated for 60 min (37° C.).
After the reaction had been stopped and "developed" with the bead suspension, 130 μl of assay mixture were transferred into 4.5 ml of 10 mM tris-HCl buffer, pH 7.4, 0.15M NaCl and the tritium activity was measured in a β-counter.
In order to carry out a preliminary test of their inhibitory activity, the substances were dissolved in DMSO (stock solution, c=1 mg/ml) and tested when diluted 10^-1, 10^-2, 10^-3 etc. in DMSO.
In order to determine IC50 values, the stock solutions of inhibitor were further diluted in 50 mM tris-HCl buffer, pH 8, and tested at suitable concentrations.
The concentration associated with 50% inhibition of the enzyme was ascertained from the plot of RT activity against log Cinh.

Row | SMILES | EC50 [1] [ng/mL] | IC50 [2] [nM]
1 | COc1ccc2c(c1)N(C(=O)OC(C)C)[C@@H](CSC)C(=O)N2 [Example 29, S-4-Isopropoxycarbonyl-6-methoxy-3-(methylthiomethyl)-3,4-dihydroquinoxalin-2(1H)-one] | < 8 | 30.8 to 308
2 | CC[C@H]1C(=O)Nc2ccccc2N1C(=O)OC(C)C [Example 30] | < 40 | 
3 | CCC[C@H]1C(=O)Nc2ccccc2N1C(=O)OC(C)C [Example 31] | 50 (≈ 0.181 µM) | 
4 | CSC[C@H]1C(=O)Nc2ccccc2N1C(=O)OC(C)C [Example 34] | < 1 | 34 to 340
5 | CC[C@H]1C(=O)Nc2ccc(Cl)cc2N1C(=O)OC(C)C [Example 35] | < 80 | 33.7
6 | CSC[C@H]1C(=O)Nc2ccc(Cl)cc2N1C(=O)OC(C)C [Example 38] | < 1 | 15.2
7 | CC[C@H]1C(=O)Nc2ccc(F)cc2N1C(=O)OC(C)C [Example 39] | 8 (≈ 0.0285 µM) | 71.4
8 | CCC[C@H]1C(=O)Nc2ccc(F)cc2N1C(=O)OC(C)C [Example 40] | 80 (≈ 0.272 µM) | 34 to 340
9 | CSC[C@H]1C(=O)Nc2ccc(F)cc2N1C(=O)OC(C)C [Example 42] | < 8 | 
10 | CC[C@H]1C(=O)Nc2ccc(OC)cc2N1C(=O)OC(C)C [Example 43] | < 1 | 
11 | CCC[C@H]1C(=O)Nc2ccc(OC)cc2N1C(=O)OC(C)C [Example 44] | < 80 | 
12 | CCOc1ccc2c(c1)N(C(=O)OC(C)C)[C@@H](CSC)C(=O)N2 [Example 52] | < 8 | 29.5 to 295
13 | CCCOc1ccc2c(c1)N(C(=O)OC(C)C)[C@@H](CSC)C(=O)N2 [Example 54] | 40 (≈ 0.113 µM) | 
14 | C=C(C)OC(=O)N1c2cc(Cl)ccc2NC(=O)[C@@H]1CC [Example 57] | 1 (≈ 0.00339 µM) | 33.9 to 339
15 | C=CCOC(=O)N1c2cc(Cl)ccc2NC(=O)[C@@H]1CC [Example 58] | 10 (≈ 0.0339 µM) | 33.9 to 339
16 | C=C(C)OC(=O)N1c2cc(Cl)ccc2NC(=O)[C@@H]1CSC [Example 59] | 20 (≈ 0.0612 µM) | 55.1
17 | CCCOC(=O)N1c2cc(Cl)ccc2NC(=O)[C@@H]1CSC [Example 60] | 40 (≈ 0.122 µM) | 30.4
18 | CCOC(=O)N1c2cc(Cl)ccc2NC(=O)[C@@H]1CSC [Example 61] | 2 (≈ 0.00635 µM) | 31.8 to 318
19 | C=C(C)OC(=O)N1c2cc(F)ccc2NC(=O)[C@@H]1CC [Example 62] | 80 (≈ 0.287 µM) | 331
20 | C=C(C)OC(=O)N1c2cc(OC)ccc2NC(=O)[C@@H]1CSC [Example 68] | 8 (≈ 0.0248 µM) | 49.6
21 | CCOC(=O)N1c2cc(F)ccc2NC(=O)[C@@H]1CC [Example 78] | < 80 | 300
22 | CCC(C)OC(=O)N1c2cc(OC)ccc2NC(=O)[C@@H]1CSC (stereo partly shown) [Example 84g] |  | 349
23 | CC(C)OC(=O)N1c2cc(F)ccc2NC(=O)[C@@H]1C [Example 84i] | 80 (≈ 0.3 µM) | 638
24 | CCC(C)OC(=O)N1c2cc(F)ccc2NC(=O)[C@@H]1CC (stereo partly shown) [Example 84j] | < 80 | 296
25 | CCCCOC(=O)N1c2cc(F)ccc2NC(=O)[C@@H]1CC [Example 84l] | 80 (≈ 0.272 µM) | 510

Row | SMILES | EC50 [1] [ng/mL] | IC50 [2] [nM]
26 | COC[C@H]1C(=O)Nc2ccc(F)cc2N1C(=O)OC(C)C [Example 84o] | 80 (≈ 0.27 µM) | 
27 | COc1ccc2c(c1)N(C(=O)OC(C)C)[C@@H](CSC)C(=S)N2 [Example 85, S-4-Isopropoxycarbonyl-6-methoxy-3-(methylthiomethyl)-3,4-dihydroquinoxalin-2(1H)-thione] | 2 (≈ 0.00587 µM) | 23.5
28 | CC[C@H]1C(=S)Nc2ccccc2N1C(=O)OC(C)C [Example 86] | 1 (≈ 0.00359 µM) | 39.5
29 | CCC[C@H]1C(=S)Nc2ccccc2N1C(=O)OC(C)C [Example 87] | 4 (≈ 0.0137 µM) | 92.3
30 | CCCC[C@H]1C(=S)Nc2ccccc2N1C(=O)OC(C)C [Example 88] | < 40 | 
31 | CSC[C@H]1C(=S)Nc2ccccc2N1C(=O)OC(C)C [Example 90] | < 8 | 16.1
32 | CC[C@H]1C(=S)Nc2ccc(Cl)cc2N1C(=O)OC(C)C [Example 91] | 2 (≈ 0.00639 µM) | 12.8
33 | CSC[C@H]1C(=S)Nc2ccc(Cl)cc2N1C(=O)OC(C)C [Example 94] | < 8 | 43.5
34 | CC[C@H]1C(=S)Nc2ccc(F)cc2N1C(=O)OC(C)C [Example 95] | 2 (≈ 0.00675 µM) | 
35 | CCC[C@H]1C(=S)Nc2ccc(F)cc2N1C(=O)OC(C)C [Example 96] | 80 (≈ 0.258 µM) | 51.5
36 | CSC[C@H]1C(=S)Nc2ccc(F)cc2N1C(=O)OC(C)C [Example 98] | 3 (≈ 0.00913 µM) | 36.5
37 | CC[C@H]1C(=S)Nc2ccc(OC)cc2N1C(=O)OC(C)C [Example 99] | < 1 | 35.7
38 | CCC[C@H]1C(=S)Nc2ccc(OC)cc2N1C(=O)OC(C)C [Example 100] | 4 (≈ 0.0124 µM) | 49.6
39 | COC[C@H]1C(=S)Nc2ccc(OC)cc2N1C(=O)OC(C)C [Example 104] | 8 (≈ 0.0247 µM) | 108
40 | CCOc1ccc2c(c1)N(C(=O)OC(C)C)[C@@H](CSC)C(=S)N2 [Example 108] | < 5 | 22.6
41 | CCCOc1ccc2c(c1)N(C(=O)OC(C)C)[C@@H](CSC)C(=S)N2 [Example 110] | 4 (≈ 0.0109 µM) | 27.1 to 271
42 | C=C(C)OC(=O)N1c2cc(Cl)ccc2NC(=S)[C@@H]1CC [Example 113] | 0.8 (≈ 0.00257 µM) | 19.3
43 | C=CCOC(=O)N1c2cc(Cl)ccc2NC(=S)[C@@H]1CC [Example 114] | 1.6 (≈ 0.00515 µM) | 22.5
44 | C=C(C)OC(=O)N1c2cc(Cl)ccc2NC(=S)[C@@H]1CSC [Example 115] | 1.6 (≈ 0.00467 µM) | 29.2
45 | C=C(C)OC(=O)N1c2cc(OC)ccc2NC(=S)[C@@H]1CSC [Example 124] | < 8 | 
46 | CCC(C)COC(=O)N1c2cc(OC)ccc2NC(=S)[C@@H]1CSC (stereo partly shown) [Example 125] |  | 40.7
47 | CCOC(=O)N1c2cc(F)ccc2NC(=S)[C@@H]1CC [Example 134] | 8 (≈ 0.0283 µM) | 10.6
48 | CSC[C@H]1C(=S)Nc2ccc(O)cc2N1C(=O)OC(C)C [Example 140a] | 40 (≈ 0.123 µM) | 285
49 | CC[C@H]1C(=S)Nc2ccc(O)cc2N1C(=O)OC(C)C [Example 140b] | < 80 | 238
50 | C=CCOC(=O)N1c2cc(Cl)ccc2NC(=S)[C@@H]1C [Example 140c] | 40 (≈ 0.135 µM) | 371
